# pIC50: −log10 of the molar value. Activity calls are given as the source filed them. No cut-off for these calls is given here.
# Legend:
# [1] = test system: L1210; experiment: Ability to effect the replication of L1210 cells in vitro; IN-Inactive; assay type: functional, cell-based; settings: Mus musculus
# [2] = Ability to effect the replication of S-180 cells in vitro; assay type: functional; settings: Mus musculus, read-out: ID50 (the source's name)
# [3] = test system: L1210; experiment: Ability to effect the replication of L1210 cells in vitro; assay type: functional; settings: Mus musculus, read-out: ID50 (the source's name)
# [4] = test system: Mus musculus; experiment: Ratio of treated to that of control was determined in mice tested in vivo(on day 31); assay type: functional
pIC50 [2],pIC50 [3],SMILES,ID50 [1],T/C [4] [%]
,,[N-]=[N+]=N[C@H]1C[C@H](n2ccc(N)nc2=O)O[C@@H]1CO,inactive,
5.40,6.15,Nc1ccn([C@H]2C[C@H](N)[C@@H](CO)O2)c(=O)n1,,283
4.30,4.74,N[C@H]1C[C@H](n2ccc(=O)[nH]c2=O)O[C@@H]1CO,,
,,[N-]=[N+]=N[C@H]1C[C@H](n2ccc(=O)[nH]c2=O)O[C@@H]1CO,inactive,

# From ChEMBL document CHEMBL1122361, “Synthesis and antineoplastic activity of 3'-azido and 3'-amino analogues of pyrimidine deoxyribonucleoside” (1983)
